Experimental data as given in patent US20140335019A1, “COMPOSITIONS AND METHODS FOR THE TREATMENT AND ANALYSIS OF NEUROLOGICAL DISORDERS” (THE REGENTS OF THE UNIVERSITY OF MICHIGAN, priority 2011, published 2014).
Entries after “also recorded” stand apart in the source; their conditions may differ. Each block holds one compound with its values, some of them ahead of it.

Columns and labels:
[1] = test system: human SK-N-BE(2)-M17 (M17) neuroblastoma cells; settings: for concentration with no toxicity: human, 24 h
Procedure: (§2) Preliminary cytotoxicity studies of the compounds in human SK-N-BE(2)-M17 (M17) neuroblastoma cells were carried out using a standard colorimetric assay for measuring cell growth (i.e., MTT assay; MTT=3-(4,5-dimethylthiazol-2-yl)-2,5-diphenyltetrazolium bromide).

[2] = test system: M17 cells; assay: cytotoxicity of metal (CuII or ZnII)-associated Aβ species with compounds, MTT assay; format: cell-based, human; settings: Aβ 20 μM, metal ions 20 μM, compound 40 μM, 24 h
Procedure: Then, the cells were incubated for 24 h.
as §2

[3] = target: Aβ aggregates (Homo sapiens, UniProt P05067); assay: ELISA of interaction with Aβ aggregates; format: binding; settings: similar to ThT
Aβ aggregates, sequence (P05067 672-711 limits assumed): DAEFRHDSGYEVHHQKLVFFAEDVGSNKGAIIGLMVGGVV
Text: (§1) While an understanding of the mechanism is not necessary to practice the invention and the invention is not limited to any particular mechanism of action, these observations imply that the compounds may target metal ions associated with Aβ species.

[4] = test system: Aβ species in human AD brain tissue homogenates; assay: treatment of human AD brain tissue homogenates, Western blotting with 6E10; format: biochemical; settings: 24 h treatment, frontal cortex homogenates
Text: The frontal cortex section of the human AD brain was selected because it generally contains high amounts of Aβ aggregates. […] Also, using these compounds, similar to in vitro disaggregation studies with synthetic Aβ peptide above, perturbing metal-Aβ interaction is contemplated to find use for disassembling Aβ aggregates in brain tissue.

[5] = solution speciation by UV-vis variable-pH titrations; format: physicochemical; settings: physiological pH (ca. 7.4)
[6] = test system: Tg2576 hAPP-transgenic mice; assay: in vivo activity in Tg2576 hAPP-transgenic mice (4G8 and Congo red staining of brain slices); settings: 1 mg/kg oral gavage every two days for two months; relative to control vehicle; p<0.01
Procedure: During the development of embodiments of the technology provided herein, experiments were conducted to verify the efficacy of pharmaceutical compositions according to the technology by testing in a murine model. Pharmaceutical compositions comprising compounds described herein were administered every two days at 1 mg/kg (0.1 ml/10 g body weight) to four female Tg2576 hAPP-transgenic mice (18 months old) for two months (total 30 times in 60 days) by oral gavage.
Efficacy was evaluated after drug administration. Tissue slices […] long were prepared from cerebrums of Tg2576 mice by a procedure comprising rapid freezing and cutting using a cryostat. To verify the degree of amyloid beta accumulation, the brain tissue slices were stained by APP/Aβ17-24-immunospecific antibody 4G8. In addition, to identify the amount of mature amyloid plaques that were generated in the presence of Apolipoprotein E (ApoE), sample were stained with Congo red.

[7] = target: Aβ monomer pretreated with ZnCl2 (Homo sapiens, UniProt P05067); assay: NMR studies of compound with Aβ monomer pretreated with ZnCl2; format: binding
Aβ monomer pretreated with ZnCl2, sequence (P05067 672-711 limits assumed): as above
Text: as §1

[8] = test system: Aβ species; settings: cited from earlier work
[9] = in vivo biodistribution of radiolabeled compound; parameters: species or system C57B1/6 mice
Procedure: Healthy female C57B1/6 mice (n=18) were administered by bolus intravenous injection with [^3H]-3b (2.5 μCi) each. The mice were divided into 3 groups of 6. Each group was sacrificed at 10 min, 60 min and 120 min post injection. Biodistribution was carried out by harvesting blood from cardiac puncture and tissue (liver, heart, kidneys, lungs, small intestine, muscle, spleen, feces, bladder, bone and brain). The brain was divided into four different sections (cerebellum, frontal cortex, parietal cortex and striatum). The tissue was digested and counted for accumulated activity.

SMILES: CN(C)c1ccc(N=Cc2ccccn2)cc1 [2b, N^1,N^1-dimethyl-N^4-(pyridin-2-ylmethylene)benzene-1,4-diamine]
cytotoxicity compared with CQ [1]: less cytotoxic than CQ
concentration with no toxicity [1]: up to 100 μM

interaction with Aβ aggregates (ELISA) [3]: interacted with Aβ aggregates
main species in solution [5]: neutral form
SMILES: CN(C)c1ccc(NCc2ccccn2)cc1 [3b, N^1,N^1-Dimethyl-N^4-(pyridin-2-ylmethyl)benzene-1,4-diamine]
toxicity induced by metal-Aβ [2]: capable of reducing metal-Aβ neurotoxicity; also recorded: noticeably diminished toxicity
concentration with no toxicity [1]: up to 40 μM
Aβ species visualized by Western blotting with 6E10 [4]: more gel-permeable and lower MW Aβ species
Aβ immunoreactivity (4G8 staining) [6]: reduced
congophilicity (Congo red staining) [6]: reduced
complex formation with ZnII-pretreated Aβ monomer [7]: a ternary complex containing Aβ, ZnII, and the molecule may be generated

SMILES: CN(C)c1ccc(-c2cn3cc(I)ccc3n2)cc1 [IMPY, 4-(6-iodoimidazo[1,2-α]pyridin-2-yl)-N,N-dimethylaniline]
binding affinity to Aβ species [8]: strong binding affinity

BBB crossing ([9]; bolus intravenous injection, 2.5 μCi, 10, 60 and 120 min post injection): can cross the BBB
SMILES: CN(C)c1ccc(NCc2ccccn2)cc1 [[^3H]-3b]
brain uptake ([9]; cerebellum, frontal cortex, parietal cortex, striatum, 10, 60, 120 min): relatively consistent within the time points chosen

SMILES: CN(C)c1ccc(/C=C/c2ccc(I)cc2)cc1 [p-1-stilbene, (E)-4-(4-iodostyryl)-N,N-dimethylaniline]
binding affinity to Aβ species [8]: strong binding affinity
